In US12084458B2, “Substituted pyridines, pyridazines, and pyrimidines as TYK2 inhibitors” (Sudo Biosciences Limited, priority 2021, dated 2024):
Read-outs that look alike come from different tables or passages of the source.

Key:
Format in all cases: cell-based
[1] = test system: HEK-Blue IFNγ reporter cells (IFNγ-stimulated STAT1 SEAP reporter); assay: HEK-Blue IFNγ SEAP reporter assay for determining selectivity; parameters: IFN-γ (SEAP selectivity, IC50): scale not given here; details: 50 ng/mL human recombinant IFNγ; for IC50: read-out: IFN-γ (SEAP selectivity, IC50)
Description: (§1) Example B-3: HEK-Blue™ IL-2 and IFNγ Reporter Assays for Determining Selectivity
(§2) HEK-Blue™ IL-2 and IFNγ reporter cells with a stably-integrated cytokine receptor and STAT5 or STAT1 express STAT-inducible secreted embryonic alkaline phosphatase (SEAP) reporter gene upon cytokine stimulation. These cells were plated in DMEM (Gibco) containing 10% heat-inactivated FBS (Gibco) and 100 U/mL PenStrep (Gibco) at 37° C. under 5% CO2 conditions for 20-22 hours. The cells were then pretreated with serially diluted test compounds for 60 min prior to stimulation with either 4 ng/mL human recombinant IL-2 (Miltenyl Biotech) or 50 ng/mL human recombinant IFNγ (InvivoGen) for 24 hours. SEAP induction was measured using the QUANTI-Blue™ Solution (InvivoGen) according to the manufacturer's instructions.

[2] = test system: HEK-Blue IL-2 reporter cells (IL-2-stimulated STAT5 SEAP reporter); assay: HEK-Blue IL-2 SEAP reporter assay for determining selectivity; details: 4 ng/mL human recombinant IL-2
Description: as §1, §2

[3] = test system: HEK-Blue IL-23 cells (IL-23-stimulated STAT3 SEAP reporter; TYK2 JH2); assay: HEK-Blue IL-23 SEAP reporter assay for profiling TYK2 pseudokinase (JH2) inhibition; details: 10 ng/mL human recombinant IL-23, SEAP reporter, read-out: IL23 (TYK2 inhibitory activity, IC50)
Description: (§3) Example B-1: HEK-Blue™ IL-23 and IFNα/β Reporter Assays for Profiling TYK2 Pseudokinase (JH2) Inhibition
(§4) HEK-Blue™ IL-23 and IFNα/β cells with a stably-integrated cytokine receptor and STAT3 or STAT1 express STAT-inducible secreted embryonic alkaline phosphatase (SEAP) reporter gene upon cytokine stimulation. These cells are plated in DMEM (Gibco) containing 10% heat-inactivated FBS (Gibco) and 100 U/mL PenStrep (Gibco) at 37° C. under 5% CO2 conditions for 20-22 hours. The cells are then pretreated with serially diluted test compounds for 60 min prior to stimulation with either 10 ng/mL human recombinant IL-23 (Miltenyl Biotech) or 1 ng/mL human recombinant IFNα (InvivoGen) for 22-24 hours for IL-23 or 16-18 h for IFNα. SEAP induction is measured using the QUANTI Blue™ Solution (InvivoGen) according to the manufacturer's instructions.

[4] = test system: HEK-Blue IFNα/β cells (IFNα-stimulated STAT1 SEAP reporter; TYK2 JH2); assay: HEK-Blue IFNα/β SEAP reporter assay for profiling TYK2 pseudokinase (JH2) inhibition; details: Homo sapiens, HEK-Blue, 1 ng/mL human recombinant IFNα, read-out: IFNα (TYK2 inhibitory activity, IC50)
Description: as §3, §4

SMILES | IFN-γ (SEAP selectivity, IC50) [1] | IC50 [2] [nM] | IC50 [3] [nM] | IC50 [4] [nM] | IC50 ([1]; Homo sapiens, HEK-Blue) [nM] | IC50 [1] [nM]
[2H]C([2H])([2H])NC(=O)c1cnc(NC(=O)C2CC2)cc1Nc1cc(F)cc2c1N(C)[C@@H](C)c1nc(C)nn1-2 (single isomer, unassigned) [Compound 110] | C/D | > 1000 | < 30 | 30 to 300 |  | 
[2H]C([2H])([2H])NC(=O)c1nnc(NC(=O)C2CC2)cc1Nc1cc(F)cc2c1N(C)[C@@H](C)c1nc(C)nn1-2 (single isomer, unassigned) [Compound 111] |  | > 1000 | < 30 | 30 to 300 | > 1000 | 
[2H]C([2H])([2H])NC(=O)c1nnc(Nc2cc(C)nc(C)n2)cc1Nc1cccc2c1N(C)Cc1nc(C)nn1-2 [Compound 15, 4-((2,5-dimethyl-4,5-dihydro-[1,2,4]triazolo[1,5-a]quinoxalin-6-yl)amino)-6-((2,6-dimethylpyrimidin-4-yl)amino)-N-(methyl-d3)pyridazine-3-carboxamide] |  | 300 to 1000 | < 30 | < 30 | < 30 | 
[2H]C([2H])([2H])NC(=O)c1nnc(NC(=O)NC)cc1Nc1cccc2c1N(C)Cc1nc(C)nn1-2 [Compound 19, 4-((2,5-dimethyl-4,5-dihydro-[1,2,4]triazolo[1,5-a]quinoxalin-6-yl)amino)-N-(methyl-d3)-6-(3-methylureido)pyridazine-3-carboxamide] |  | > 1000 | < 30 | 30 to 300 | 300 to 1000 | 
[2H]C([2H])([2H])NC(=O)c1cnc(Nc2cc(C)nc(C)n2)cc1Nc1cccc2c1N(C)Cc1nc(C)nn1-2 [Compound 26, 4-((2,5-dimethyl-4,5-dihydro-[1,2,4]triazolo[1,5-a]quinoxalin-6-yl)amino)-6-((2,6-dimethylpyrimidin-4-yl)amino)-N-(methyl-d3)nicotinamide] |  | 300 to 1000 | < 30 | < 30 | 30 to 300 | 
[2H]C([2H])([2H])NC(=O)c1nnc(NC(=O)C2CC2)cc1Nc1cccc2c1N(C)C([2H])([2H])c1nc(C)nn1-2 [Compound 35, 6-(cyclopropanecarboxamido)-4-((2,5-dimethyl-4,5-dihydro-[1,2,4]triazolo[1,5-a]quinoxalin-6-yl-4,4-d2)amino)-N-(methyl-d3)pyridazine-3-carboxamide] |  | > 1000 | < 30 | < 30 | 30 to 300 | 
[2H]C([2H])([2H])NC(=O)c1cnc(NC(=O)C2CC2)cc1Nc1cccc2c1N(C)C([2H])([2H])c1nc(C)nn1-2 [Compound 36, 6-(cyclopropanecarboxamido)-4-((2,5-dimethyl-4,5-dihydro-[1,2,4]triazolo[1,5-a]quinoxalin-6-yl-4,4-d2)amino)-N-(methyl-d3)nicotinamide] |  | > 1000 | < 30 | < 30 | 300 to 1000 | 
[2H]C([2H])([2H])NC(=O)c1nnc(NC(=O)C2CC2)cc1Nc1cccc2c1N(C)C1(CC1)c1nc(C)nn1-2 [Compound 39, 6-(cyclopropanecarboxamido)-4-((2′,5′-dimethyl-5′H-spiro[cyclopropane-1,4′-[1,2,4]triazolo[1,5-a]quinoxalin]-6′-yl)amino)-N-(methyl-d3)pyridazine-3-carboxamide] |  | > 1000 | < 30 | < 30 | 300 to 1000 | 
[2H]C([2H])([2H])NC(=O)c1cnc(NC(=O)C2CC2)cc1Nc1cccc2c1N(C)C1(CC1)c1nc(C)nn1-2 [Compound 40, 6-(cyclopropanecarboxamido)-4-((2′,5′-dimethyl-5′H-spiro[cyclopropane-1,4′-[1,2,4]triazolo[1,5-a]quinoxalin]-6′-yl)amino)-N-(methyl-d3)nicotinamide] |  | > 1000 | < 30 | < 30 | > 1000 | 
[2H]C([2H])([2H])NC(=O)c1nnc(NC(=O)C2CC2)cc1Nc1cccc2c1N(C)[C@H](C([2H])([2H])[2H])c1nc(C)nn1-2 [Compound 44, (R)-6-(cyclopropanecarboxamido)-4-((2,5-dimethyl-4-(methyl-d3)-4,5-dihydro-[1,2,4]triazolo[1,5-a]quinoxalin-6-yl)amino)-N-(methyl-d3)pyridazine-3-carboxamide] |  | > 1000 | < 30 | < 30 | > 1000 | 
[2H]C([2H])([2H])NC(=O)c1cnc(NC(=O)C2CC2)cc1Nc1cccc2c1N(C)Cc1nn(C([2H])([2H])[2H])nc1-2 [Compound 49, 6-(cyclopropanecarboxamido)-N-(methyl-d3)-4-((5-methyl-2-(methyl-d3)-4,5-dihydro-2H-[1,2,3]triazolo[4,5-c]quinolin-6-yl)amino)nicotinamide] |  | > 1000 | < 30 | < 30 | 30 to 300 | 
[2H]C([2H])([2H])NC(=O)c1cnc(NC(=O)NC)cc1Nc1cccc2c1N(C)Cc1nn(C)nc1-2 [Compound 50, 4-((2,5-dimethyl-4,5-dihydro-2H-[1,2,3]triazolo[4,5-c]quinolin-6-yl)amino)-N-(methyl-d3)-6-(3-methylureido)nicotinamide] |  | > 1000 | < 30 | < 30 | > 1000 | 
[2H]C([2H])([2H])NC(=O)c1nnc(NC(=O)C2CC2)cc1Nc1cccc2c1N(C)C([2H])([2H])c1nn(C)nc1-2 [Compound 53, 6-(cyclopropanecarboxamido)-4-((2,5-dimethyl-4,5-dihydro-2H-[1,2,3]triazolo[4,5-c]quinolin-6-yl-4,4-d2)amino)-N-(methyl-d3)pyridazine-3-carboxamide] |  | 300 to 1000 | < 30 | < 30 | 30 to 300 | 
[2H]C([2H])([2H])NC(=O)c1nnc(NC(=O)NC)cc1Nc1cccc2c1N(C)C([2H])([2H])c1nn(C)nc1-2 [Compound 54, 4-((2,5-dimethyl-4,5-dihydro-2H-[1,2,3]triazolo[4,5-c]quinolin-6-yl-4,4-d2)amino)-N-(methyl-d3)-6-(3-methylureido)pyridazine-3-carboxamide] |  | > 1000 | < 30 | < 30 | 300 to 1000 | 
[2H]C([2H])([2H])NC(=O)c1cnc(NC(=O)NC)cc1Nc1cccc2c1N(C)C([2H])([2H])c1nn(C)nc1-2 [Compound 63, 4-((2,5-dimethyl-4,5-dihydro-2H-[1,2,3]triazolo[4,5-c]quinolin-6-yl-4,4-d2)amino)-N-(methyl-d3)-6-(3-methylureido)nicotinamide] |  | > 1000 | < 30 | < 30 | > 1000 | 
[2H]C([2H])([2H])NC(=O)c1cnc(NC(=O)NC2CCC2)cc1Nc1cccc2c1N(C)Cc1nn(C)nc1-2 [Compound 64, 6-(3-cyclobutylureido)-4-((2,5-dimethyl-4,5-dihydro-2H-[1,2,3]triazolo[4,5-c]quinolin-6-yl)amino)-N-(methyl-d3)nicotinamide] |  | > 1000 | < 30 | 30 to 300 | > 1000 | 
[2H]C([2H])([2H])NC(=O)c1cnc(NC(=O)NC2CC2)cc1Nc1cccc2c1N(C)Cc1nn(C)nc1-2 [Compound 66, 6-(3-cyclopropylureido)-4-((2,5-dimethyl-4,5-dihydro-2H-[1,2,3]triazolo[4,5-c]quinolin-6-yl)amino)-N-(methyl-d3)nicotinamide] |  | > 1000 | < 30 | 30 to 300 | > 1000 | 
[2H]C([2H])([2H])NC(=O)c1nnc(NC(=O)[C@@H]2CC2(F)F)cc1Nc1nccc2c1N(C)Cc1nn(C)nc1-2 [Compound 68, (S)-6-(2,2-difluorocyclopropane-1-carboxamido)-4-((2,5-dimethyl-4,5-dihydro-2H-[1,2,3]triazolo[4,5-c][1,7]naphthyridin-6-yl)amino)-N-(methyl-d3)pyridazine-3-carboxamide] |  | > 1000 | < 30 | < 30 | 300 to 1000 | 
[2H]C([2H])([2H])NC(=O)c1nnc(NC(=O)[C@H]2CC2(F)F)cc1Nc1nccc2c1N(C)Cc1nn(C)nc1-2 [Compound 69, (R)-6-(2,2-difluorocyclopropane-1-carboxamido)-4-((2,5-dimethyl-4,5-dihydro-2H-[1,2,3]triazolo[4,5-c][1,7]naphthyridin-6-yl)amino)-N-(methyl-d3)pyridazine-3-carboxamide] |  | > 1000 | < 30 | 30 to 300 |  | > 1000
